Experimental data reported in patent US6655379B2, “Aerosolized active agent delivery” (Nektar Therapeutics, priority 1998, dated 2003).

Experiments:
[1] = human, in vivo
[2] = in vivo; cited from earlier work

Substance: Albuterol sulfate
- therapeutic effect, comparison of flow rates (dry powder inhaled, flow rates below 17 liters per minute vs above 17 liters per minute): increased therapeutic effect
- lung deposition, comparison of flow rates (human, in vivo): higher lung deposition

Substance: Human calcitonin: Powders containing 26.7% human calcitonin (Ciba-Geigy), spray dried with mannitol and citrate buffer
- bioavailabilities, comparison of flow rates [1]: higher bioavailabilities
- times to peak concentration, comparison of flow rates [1]: lower times to peak concentration

Substance: Low molecular weight heparin
- bioavailabilities, comparison of flow rates [1]: higher bioavailabilities
- times to peak concentration, comparison of flow rates [1]: lower times to peak concentration

Substance: semi-synthetic human insulin: semi-synthetic human insulin delivered by nebulizer to six diabetic children (Elliot et al)
- efficiency of absorption as compared to subcutaneous delivery [2]: 20-25%
